This note sets out measurements from US9084793B2, “Methods for treating Alzheimer's disease by administering certain synthetic compounds” (BEIJING JOEKAI BIOTECHNOLOGY LLC, priority 2011, dated 2015).

Entries after “also recorded” stand apart in the source; their conditions may differ.

In assay [1] the test system is double transgenic mice (APPswe.PSEN1dE9). As to the kind of experiment: Morris water maze in double transgenic AD-model mice. In kind it is in vivo, mouse. To be noted: two-month treatment (6- to 8-month-old), lavage once daily.
In assay [2] the test system is Aβ42 transgenic flies. Nature of the assay: Pavlovian olfactory associative immediate memory in Aβ42 transgenic flies. In kind it is in vivo, Drosophila. To be noted: Aβ42 transgenic male flies, 7-day drug feeding, 50 μg/ml, tested day 10 after eclosion. Here is the method: Behavioral screening was performed with 2000 synthetic compounds (purchased from TimTec LLC, USA) with structures that are presumably targeted to protein kinase activities (FIG. 1A). Only male flies were selected for 7-day drug treatment and then subjected to behavioral assay at day 10 after eclosion. […] Among them, 9 were tested in double transgenic mice and compounds were indicated to have positive results after 2 months of treatment (6- to 8-month-old) (FIG. 1A-G).

Assay [3] addresses T1, human EGFR expressed in COS-7 cells (Homo sapiens, UniProt P00533).
T1 construct: expressed in transfected cells; host or cells: COS-7
As to the kind of experiment: Oligomeric Aβ42-induced phosphorylation of EGFR in COS-7 cells transfected with EGFRwt plasmid (Western blot). In kind it is cell-based. To be noted: 10 μg/ml oligomeric Aβ42, COS-7 cells transfected with EGFRwt plasmid. As to the method:
(§1) COS-7 cells were cultured in normal Dulbecco's Modified Eagle Medium (D-MEM) containing 10% fetal bovine serum (Invitrogen) at 37° C. in 5% CO2. Transfection of the cells with an EGFR^WT plasmid was performed following the Lipofectamine 2000 manuals (Invitrogen). After 48 h, cells were washed with fresh medium once and incubated with 10 or 25 μg/ml Aβ42 oligomers for 15 min at 37° C. in 5% CO2. 0.5 μg/ml human EGF (Sigma) was used as a positive control. Cells were then washed with PBS for 3 times and collected.
The preparation procedure was described previously (Dahlgren K, et al., J Biol Chem. 277:32046-53, 2002). Synthetic and recombinant wild type Aβ42 (AnaSpec, Inc.) was initially dissolved to 1 mM in hexafluoroisopropanol (Sigma).
Hexafluoroisopropanol was removed under vacuum in a Speed Vac, and the peptide film was stored at −20° C. For oligomer preparation, the peptide was first resuspended in DMSO to a concentration of 12.5 mg/ml and then diluted with DMEM/F-12 (phenol red-free, Invitrogen) to a final concentration of 500 μg/ml and incubated at 4° C. for 24 h.
(§2) Whole fly head or cells lysates were prepared using a RIPA buffer containing 0.3% SDS, 50 mM Tris-HCl, pH 7.4, 0.5% NP-40, 1% sodium deoxycholate, 150 mM NaCl, 5 mM EDTA, 1 tablet per 50 ml complete protease inhibitor cocktail (Roche Diagnostics). Lysates were diluted in an SDS sample buffer and separated on 10-20% Tris-Tricine gels (Invitrogen), and transferred to nitrocellulose membranes (Invitrogen). The membranes were boiled in PBS for 3 min, blocked with 5% non-fat dry milk and blotted with a first antibody. First antibodies used included mouse anti-Aβ42 (6E10, Covance Research Products), mouse anti-dEGFR (Abcam), rabbit anti-hEGFR (Cell Signaling), mouse anti-hEGFR-p (Cell Signaling) and rabbit anti-Actin (Sigma). Data were analyzed with the ImageJ software (National Institutes of Health).
Behavioral screening was performed with 2000 synthetic compounds (purchased from TimTec LLC, USA) with structures that are presumably targeted to protein kinase activities (FIG. 1A). […]
(In western blotting, separated proteins are transferred to a membrane and probed.)

Assay [4] has as its target T1, human EGFR expressed in COS-7 cells. Nature of the assay: Normal p-EGFR level in EGFRwt-expressing COS-7 cells without oligomeric Aβ42 (Western blot). The settings on record: 100 μg/ml compound, EGFRwt-expressing COS-7 cells without oligomeric Aβ42 peptides. In kind it is cell-based. As to the method: FIG. 2. […] 100 μg/ml JKF-006, JKF-011 and JKF-027 were used to treat EGFR^wt-expressing COS-7 cells without oligomeric Aβ42 peptides. […] N=3-4.
as §1, §2

Take “2-Propenamide, 2-cyano-N-[2-(1H- indol-3-yl)ethyl]-3-[5- (4-morpholinyl)-2- furanyl]- [JKF-027]”: the “Rescue of Aβ-induced memory loss (Morris water maze)” value (from here on “Rescue of Aβ-induced memory loss”) in assay [1] (55 mg/kg/day) is “Rescue of Aβ-induced memory loss; also recorded: effective results in rescuing the memory loss”. Also, in assay [2], the “Rescue/prevention of Aβ42-induced memory loss (performance index)” value is recorded as “effective in rescuing memory loss”. Moreover, the “Effect on oligomeric Aβ42-induced increase of p-EGFR activity” value in assay [3] was “capable of inhibiting induced p-EGFR activity; also recorded: significantly inhibit”. Also, the “Effect on normal (endogenous) p-EGFR level” value in assay [4] was “None of the compounds changed the p-EGFR level; also recorded: incapable of affecting the endogenous p-EGFR level”.

For the compound `N#C/C(=C/c1ccc(-c2cc(C(=O)O)ccc2Cl)o1)C(=O)Nc1ccc(F)cc1` [JKF-006, Benzoic acid, 4-chloro-3-[5-[2-cyano-3-[(4-fluorophenyl)amino]-3-oxo-1-propen-1-yl]-2-furanyl]-], in assay [1] (58 mg/kg/day), the “Rescue of Aβ-induced memory loss” value was “Rescue of Aβ-induced memory loss; also recorded: effective results in rescuing the memory loss”. Moreover, the “Rescue/prevention of Aβ42-induced memory loss (performance index)” value in assay [2] is reported as “effective in rescuing memory loss”. Moreover, the “Effect on oligomeric Aβ42-induced increase of p-EGFR activity” value in assay [3] is recorded as “capable of inhibiting induced p-EGFR activity; also recorded: significantly inhibit”. The “Effect on normal (endogenous) p-EGFR level” value in assay [4] was “None of the compounds changed the p-EGFR level; also recorded: incapable of affecting the endogenous p-EGFR level”.

Regarding `O=C1CNCCN1` [JKF-011, Piperazin-2-one], the “Rescue of Aβ-induced memory loss” value in assay [1] (14 mg/kg/day) is on record as “Rescue of Aβ-induced memory loss; also recorded: effective results in rescuing the memory loss”. For the same compound, in assay [2], the “Rescue/prevention of Aβ42-induced memory loss (performance index)” value is on record as “effective in rescuing memory loss”. Further, in assay [3], the “Effect on oligomeric Aβ42-induced increase of p-EGFR activity” value was “capable of inhibiting induced p-EGFR activity; also recorded: significantly inhibit”. In addition, the “Effect on normal (endogenous) p-EGFR level” value in assay [4] is “None of the compounds changed the p-EGFR level; also recorded: incapable of affecting the endogenous p-EGFR level”.
